# Results taken from patent publication US20040019118A1, “NMDA receptor antagonists and their use in inhibiting abnormal hyperphosphorylation of microtubule associated protein tau” (priority 2002, published 2004).
# “Also recorded” adds a separate entry of the source. Like-named read-outs stand apart in the source and are kept apart here.
# Key:
# CaMKII = CaMKII activity in extracts of treated hippocampal slice cultures; type: cell-based, rat
# Protocol: (§1) Organotypic cultures of rat hippocampal slices were prepared from 20-30 day old Wistar rats and cultured with the interface method as described previously (Stoppini, et al. 1991; Bahr, et al. 1995; Zhongrin, et al. 2000). The rats were anesthetized with ketamine (100 mg/kg body weight) and decapitated and the hippocampi were dissected out and sliced into 400 um coronal sections by a McIllwain tissue chopper. Select slices with uninterrupted bright transparent neuronal layers were plated, 1-3 slices/filter, onto Millicell CM filters (Millipore, Bedford, Mass.). For the first 2 days in vitro (DIV) cultures were maintained in 25% horse serum, 50% Basal Media-Eagle (BEM), 25% Eagle's Balanced Salt Solution (EBSS), 25 mM HEPES, 1 mM glutamine, 28 mM glucose, pH 7.2, at 32° C. in a 5% CO2 humidified atmosphere. The slice cultures were then switched to 25% horse serum, 50% BEM and EBSS modified so that the potassium concentration was 2.66 mM, for another 5 DIV. After 7 DIV, the cultures were maintained in physiological potassium containing 5% horse serum medium at 35° C. for at least 20 days before any treatment was applied. When the slices were treated, the reagents were applied into the culture medium. At different time points, the slices collected with a brush were washed twice in homogenizing buffer (50 mM HEPES, pH 7.0, 10 mM β-merceptoethanol [BME], 1 mM EDTA, 1 mM EGTA, 0.1 mM phenylmethyl sulfonyl fluoride [PMSF], 2.0 mM benzamidine and 2.0 μg/ml each of aprotinin, leupeptin and pepstatin) and homogenized at 4° C. using a Teflon-glass homogenizer. The homogenate was then divided into two parts, one was centrifuged at 16000×g for 15 min and the supernatant was used to assay activities of PP-2A and PP-1. The rest of the homogenate was diluted 1:1 with a phosphatase inhibitor cocktail (20 mM β-glycerophosphate, 2 mM Na3VO4 and 100 mM NaF, pH 7.0) and either used for Western blots or centrifuged at 16000×g for 15 min and the resulting supernatant used to determine the kinase activities.
# CaMKII activity was measured in 25 μl of buffer containing 50 mM HEPES, pH 7.5, 10 mM MgCl2, 2.0 mM CaCl2, 10 mM BME, 10 μg/ml calmodulin (CaM), 20 μM syntide (Sigma, St Louis Mo., USA), 0.06 mg/ml slice extract and 200 μM [γ^32P]ATP. The reaction was initiated by adding [γ32p] ATP. After incubation for 10 min at 30° C., 10 μl reaction mixture was removed and spotted on to phosphocellulose membrane. The membrane was then washed five times in 1% phosphoric acid to remove non-protein incorporated ^32P, dried and counted by Cerenkov radiation. The activity of PKA was determined as above except the reaction mixture contained 70 mM NaHPO4, pH 6.8, 14 mM MgCl2, 1.4 mM EDTA, 30 μM malantide (Sigma, St Louis, Mo., USA), 200 μM [γ^32p] ATP and 0.06 mg/ml slice extract.
# PP-2A = target: T1, PP-2A (Rattus norvegicus, UniProt P63331); assay: PP-2A activity in extracts of treated hippocampal slice cultures; type: cell-based
# T1 construct: from tissue; host or cells: organotypic culture of adult rat hippocampal slices; 16,000xg extract
# Protocol: as §1
# Activities of PP-2A and PP-1 were assayed towards [^32P] phosphorylase-a as a substrate as described previously (Gong, et al. 1994). The phosphatase activity was assayed in 20 μl of reaction mixture containing 50 mM Tris, pH 7.0, 10 mM BME, 0.1 mM EDTA, 7.5 mM caffeine, 7.5 ng/μl [^32P]phosphorylase-a and 0.06 mg/ml slice culture extract. The reaction was started by adding ^32P-phosphorylase-a. After incubation for 30 min at 30° C., 7 μl of the reaction mixture was spotted on to 31 ETCHR chromatography paper which had been prespotted with 10 μl stop solution (4 mM ATP+20% TCA). Then the ^32p released was separated from the protein-incorporated ^32P by paper chromatography in 5% TCA and 0.2 M NaCl, paper strips dried, cut and counted by Cerenkov radiation. A PP-1 specific inhibitor, inhibitor-1 (Hitken, et al. 1982) was included in the assays for PP-2A activity. PP-1 activity was calculated by subtracting the PP-2A activity from the total phosphorylase-a phosphatase activity (PP-1/PP-2A) assayed in the absence of inhibitor-1.
# [1] = test system: tau phosphorylated at Ser-262; assay: Immunohistochemical staining of tau phosphorylated at Ser 262 in cultured hippocampal slices; type: cell-based, rat; conditions: 100 nM OA 24 h
# Protocol: (§2) Organotypic cultures of rat hippocampal slices were prepared from 20-30 day old Wistar rats and cultured with the interface method as described previously (Stoppini, et al. 1991; Bahr, et al. 1995; Zhongrin, et al. 2000). The rats were anesthetized with ketamine (100 mg/kg body weight) and decapitated and the hippocampi were dissected out and sliced into 400 um coronal sections by a McIllwain tissue chopper. Select slices with uninterrupted bright transparent neuronal layers were plated, 1-3 slices/filter, onto Millicell CM filters (Millipore, Bedford, Mass.). For the first 2 days in vitro (DIV) cultures were maintained in 25% horse serum, 50% Basal Media-Eagle (BEM), 25% Eagle's Balanced Salt Solution (EBSS), 25 mM HEPES, 1 mM glutamine, 28 mM glucose, pH 7.2, at 32° C. in a 5% CO2 humidified atmosphere. The slice cultures were then switched to 25% horse serum, 50% BEM and EBSS modified so that the potassium concentration was 2.66 mM, for another 5 DIV. […]
# After different treatments some of the hippocampal slices were fixed in periodate/lysine/paraformaldehyde solution (Mclean, et al. 1974) at 33° C. for 5 h and then kept in 1% Triton-x-100 in PBS (pH 7.4) for 72 h at room temperature to improve the penetration of the antibodies. […] Peroxidase was detected using 0.05% diaminobenzidine (DAB) and H2O2 (0.01%) for 10 min.
# GSK-3 = GSK-3 activity in extracts of treated hippocampal slice cultures; type: cell-based, rat
# Protocol: as §2, with “DIV. After 7 DIV, the cultures were maintained in physiological potassium containing 5% horse serum medium at 35° C. for at least 20 days before any treatment was applied. When the slices were treated, the reagents were applied into the culture medium.” for “DIV.”
# [2] = 100 nM OA plus 10 μM Memantine 24 h, or OA 24 h, wash, then Memantine 24 h
# [3] = 100 nM OA, 10 μM Memantine, 24 h
# [4] = Memantine 10 to 30 μM, or 24 h to 48 h
# T1 sequence (P63331 whole entry): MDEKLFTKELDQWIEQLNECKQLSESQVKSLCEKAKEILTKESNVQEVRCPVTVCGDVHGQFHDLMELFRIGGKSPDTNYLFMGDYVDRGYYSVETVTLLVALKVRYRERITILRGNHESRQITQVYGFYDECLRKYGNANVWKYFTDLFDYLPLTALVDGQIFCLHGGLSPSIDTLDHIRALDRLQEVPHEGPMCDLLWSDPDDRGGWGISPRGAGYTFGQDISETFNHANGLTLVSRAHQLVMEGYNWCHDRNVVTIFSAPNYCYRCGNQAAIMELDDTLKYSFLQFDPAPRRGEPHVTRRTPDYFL
compound,measurement,setting,value
"CC12CC3CC(C)(C1)CC(N)(C3)C2 [Memantine, 1-amino-3,5-dimethyl adamantane]",restoration of OA-stimulated CaMKII activity,"CaMKII; 100 nM OA and 1, 10 or 30 μM Memantine, 3-48 h (FIG. 2b), p<0.02",restored the OA-stimulated CaMKII activity to normal level
same,restoration of CaMKII activity,CaMKII; [2],Restoration of CaMKII activity; also recorded: almost completely restored; also recorded: restored the activities of both PP-2A and CaMKII
same,restoration of OA-stimulated CaMKII activity,CaMKII; [3],"restored the OA-induced changes in the activities of PP-2A, CaMKII and PKA to normal levels; also recorded: practically completely restored"
same,additional effect on restoration of CaMKII activity,CaMKII; [4],Neither increase of Memantine from 10 μM to 30 μM nor duration of the treatment from 24 h to 48 h resulted in any significant additional effect
same,concentration giving full effect on restoration of CaMKII activity,CaMKII; OA-treated slices,10 µM
same,lowest concentration at which restoration of CaMKII activity was observed,CaMKII; OA-treated slices,1 µM
same,CaMKII activity after replacement of glutamate,"CaMKII; after 0.3 mM glutamate, fresh medium with or without 10 μM Memantine or 15 μM MK801",restored the CaMKII activity to normal level
same,effect on CaMKII activity in control (untreated) slices,CaMKII; no OA,no significant effect
same,restoration of OA-inhibited PP-2A activity,"PP-2A; 100 nM OA and 1, 10 or 30 μM Memantine, 3-48 h (FIG. 2a), p<0.02",restored the OA-inhibited PP-2A activity to normal level
same,restoration of PP-2A activity,PP-2A; [2],restored the PP-2A activity to normal level; also recorded: almost completely restored; also recorded: restored the activities of both PP-2A and CaMKII
same,restoration of OA-inhibited PP-2A activity,PP-2A; [3],"practically completely restored; also recorded: restored the OA-induced changes in the activities of PP-2A, CaMKII and PKA to normal levels"
same,restoration of OA-inhibited PP-2A activity,PP-2A; 5 μM compound,restoration
same,additional effect on restoration of PP-2A activity,PP-2A; [4],Neither increase of Memantine from 10 μM to 30 μM nor duration of the treatment from 24 h to 48 h resulted in any significant additional effect
same,concentration giving full effect on restoration of PP-2A activity,PP-2A; OA-treated slices,10 µM
same,lowest concentration at which restoration of PP-2A activity was observed,PP-2A; OA-treated slices,1 µM
same,effect on PP-2A activity,"PP-2A; after 0.3 mM glutamate 1 h, 10 μM Memantine or 15 μM MK801",no effect
same,effect on PP-2A activity in control (untreated) slices,PP-2A; no OA,no significant effect
same,pS262 positive cells / p-Ser-262 immunostaining,[1]; then 10 μM Memantine 24 h,decreased dramatically; also recorded: markedly decreased; also recorded: restored in large part
same,effect on GSK-3 activity,GSK-3; Memantine in OA-treated cultures,neither OA nor Memantine had any significant effect; also recorded: no significant effect
"C=C1[C@@H](O)[C@@H]2O[C@]3(CC[C@H](/C=C/[C@@H](C)[C@@H]4CC(C)=C[C@@]5(O[C@H](C[C@@](C)(O)C(=O)O)CC[C@H]5O)O4)O3)CC[C@H]2O[C@@H]1[C@@H](O)C[C@H](C)[C@H]1O[C@@]2(CCCCO2)CC[C@H]1C [OA, Okadaic Acid]",increase in CaMKII activity,"CaMKII; 10 nM OA, 24 h",~20%
same,CaMKII activity as % of control,"CaMKII; 100 nM OA, 24 h",180%
same,increase in CaMKII activity,"CaMKII; 100 nM OA, 24 h",~70%
same,increase in CaMKII activity,"CaMKII; 1,000 nM OA, 24 h",~140%
same,CaMKII activity as % of control,"CaMKII; 1000 nM OA, 24 h",240%
same,change in CaMKII activity,CaMKII; OA-treated slice cultures,marked increase
same,inhibition (decrease) of PP-2A activity,"PP-2A; 100 nM OA, 24 h",~40%
same,inhibition (decrease) of PP-2A activity,"PP-2A; 1000 nM (1 μM) OA, 48 h, 1 µM",~75%
same,inhibition at 0.1 µM,"PP-2A; read-out: inhibition (decrease) of PP-2A activity, 100 nM OA, 24 h",42%
same,inhibition at 1 µM,"PP-2A; read-out: inhibition (decrease) of PP-2A activity, 1000 nM (1 μM) OA, 48 h",78%
same,inhibition at 0.01 µM,"PP-2A; read-out: inhibition of PP-2A activity, 10 nM OA, 24 h",~20%
same,inhibition at 1 µM,"PP-2A; read-out: inhibition of PP-2A activity, 1 μM OA, 24 h",~65%
same,pS262 positive cells / p-Ser-262 staining,[1]; then medium 24 h,increased markedly; also recorded: marked increase
same,change in GSK-3 activity,GSK-3; OA-treated slice cultures,no significant change; also recorded: neither OA nor Memantine had any significant effect; also recorded: no significant alteration
